According to ChEMBL document CHEMBL5465560, “Selectivity Literature for EUbOPEN Chemogenomic Library” (2024):
Values belong to the molecule of their own block, whether it stands above or below them.

How the values were obtained:
[1] = biological target: Serine/threonine-protein kinase PAK 6 (Homo sapiens) (UniProt Q9NQU5); test: Selectivity interaction (KinomeScan (DiscoverX)) EUB0000666a PAK6; conditions: at 10 µM
[2] = biological target: T1, Serine/threonine-protein kinase 3 (Homo sapiens) (UniProt Q13188); test: Selectivity interaction (Kinase panel (literature)) EUB0001199aCl STK3; conditions: at 1 µM
T1 sequence (whole entry): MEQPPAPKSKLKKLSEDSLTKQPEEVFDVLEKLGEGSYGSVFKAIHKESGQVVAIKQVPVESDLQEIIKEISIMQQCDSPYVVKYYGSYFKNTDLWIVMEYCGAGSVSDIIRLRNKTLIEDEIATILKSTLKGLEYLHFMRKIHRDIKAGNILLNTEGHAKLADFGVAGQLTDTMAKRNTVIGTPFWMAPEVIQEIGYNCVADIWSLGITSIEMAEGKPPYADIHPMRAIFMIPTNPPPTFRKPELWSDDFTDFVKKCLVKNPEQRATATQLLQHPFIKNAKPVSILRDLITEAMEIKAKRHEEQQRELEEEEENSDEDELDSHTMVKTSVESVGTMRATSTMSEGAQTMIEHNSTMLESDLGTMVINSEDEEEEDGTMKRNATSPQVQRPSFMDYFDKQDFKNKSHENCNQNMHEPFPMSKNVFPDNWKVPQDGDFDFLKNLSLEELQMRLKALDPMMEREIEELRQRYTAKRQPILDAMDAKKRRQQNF

[3] = biological target: T2, Serine/threonine-protein kinase Chk1 (Homo sapiens) (UniProt O14757); test: Selectivity interaction (SelectScreen profiling (Invitrogen)) EUB0000607a CHEK1; conditions: at 2 µM
T2 sequence (whole entry): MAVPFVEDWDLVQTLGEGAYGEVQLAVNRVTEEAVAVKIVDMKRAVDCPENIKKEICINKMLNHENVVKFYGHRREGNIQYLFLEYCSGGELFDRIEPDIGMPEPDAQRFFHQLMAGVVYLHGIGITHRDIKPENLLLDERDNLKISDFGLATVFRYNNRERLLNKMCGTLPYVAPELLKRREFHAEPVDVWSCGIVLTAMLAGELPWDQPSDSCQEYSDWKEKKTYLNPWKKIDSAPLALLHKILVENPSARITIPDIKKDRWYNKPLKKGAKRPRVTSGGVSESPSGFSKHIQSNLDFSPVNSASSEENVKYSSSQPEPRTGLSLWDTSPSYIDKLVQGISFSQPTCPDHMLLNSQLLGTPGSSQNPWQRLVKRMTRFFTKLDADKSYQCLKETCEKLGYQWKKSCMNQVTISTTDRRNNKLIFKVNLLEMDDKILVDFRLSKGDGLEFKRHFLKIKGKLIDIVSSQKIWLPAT

[4] = biological target: Casein kinase I isoform delta (Homo sapiens, UniProt P48730); conditions: at 10 µM
Sequence of Casein kinase I isoform delta (P48730 whole entry, looked up, canonical isoform): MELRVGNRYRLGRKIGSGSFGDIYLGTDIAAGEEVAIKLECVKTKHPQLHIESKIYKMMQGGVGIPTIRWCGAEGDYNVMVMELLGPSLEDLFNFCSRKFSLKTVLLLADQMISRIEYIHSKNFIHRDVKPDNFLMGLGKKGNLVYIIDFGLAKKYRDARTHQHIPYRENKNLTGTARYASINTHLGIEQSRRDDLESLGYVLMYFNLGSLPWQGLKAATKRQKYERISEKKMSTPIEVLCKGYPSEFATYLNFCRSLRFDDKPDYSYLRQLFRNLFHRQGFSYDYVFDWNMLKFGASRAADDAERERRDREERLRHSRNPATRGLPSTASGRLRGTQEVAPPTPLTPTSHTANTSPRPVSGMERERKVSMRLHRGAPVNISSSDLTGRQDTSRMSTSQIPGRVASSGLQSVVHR

[5] = biological target: Serine/threonine-protein kinase N1 (Homo sapiens, UniProt Q16512); test: Selectivity interaction (Kinase panel (Invitrogen)) EUB0000639a PKN1; conditions: at 200 nM
Sequence of Serine/threonine-protein kinase N1 (Q16512 2-942 limits assumed): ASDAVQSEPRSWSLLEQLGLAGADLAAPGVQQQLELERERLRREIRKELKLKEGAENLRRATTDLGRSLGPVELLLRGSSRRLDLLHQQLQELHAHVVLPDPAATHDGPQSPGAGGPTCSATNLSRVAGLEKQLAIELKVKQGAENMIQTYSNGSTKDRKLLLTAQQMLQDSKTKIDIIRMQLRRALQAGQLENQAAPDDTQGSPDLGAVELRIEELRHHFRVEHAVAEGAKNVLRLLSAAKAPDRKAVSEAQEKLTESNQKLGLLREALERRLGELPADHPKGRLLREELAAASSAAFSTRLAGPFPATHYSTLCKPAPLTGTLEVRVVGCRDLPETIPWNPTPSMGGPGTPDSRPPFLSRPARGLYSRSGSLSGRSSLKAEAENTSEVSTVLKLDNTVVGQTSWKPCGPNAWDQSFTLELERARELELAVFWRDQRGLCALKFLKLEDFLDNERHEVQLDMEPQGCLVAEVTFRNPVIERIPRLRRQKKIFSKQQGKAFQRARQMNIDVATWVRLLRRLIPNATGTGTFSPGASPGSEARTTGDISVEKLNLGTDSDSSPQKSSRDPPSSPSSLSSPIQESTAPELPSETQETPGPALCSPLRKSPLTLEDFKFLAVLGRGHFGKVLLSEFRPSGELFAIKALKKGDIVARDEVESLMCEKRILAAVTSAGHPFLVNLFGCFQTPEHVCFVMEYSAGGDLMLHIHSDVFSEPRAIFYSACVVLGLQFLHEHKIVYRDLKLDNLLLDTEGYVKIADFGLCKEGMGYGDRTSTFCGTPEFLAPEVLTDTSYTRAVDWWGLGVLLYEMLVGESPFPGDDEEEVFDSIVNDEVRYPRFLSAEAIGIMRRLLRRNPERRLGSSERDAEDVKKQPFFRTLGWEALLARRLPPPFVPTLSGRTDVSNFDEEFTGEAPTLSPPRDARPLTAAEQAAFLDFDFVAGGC

[6] = biological target: Casein kinase I isoform gamma-3 (Homo sapiens) (UniProt Q9Y6M4); test: Selectivity interaction (KinomeScan (DiscoverX)) EUB0000595a CSNK1G3; conditions: at 10 µM
Sequence of Casein kinase I isoform gamma-3 (Homo sapiens) (Q9Y6M4 whole entry, looked up, canonical isoform): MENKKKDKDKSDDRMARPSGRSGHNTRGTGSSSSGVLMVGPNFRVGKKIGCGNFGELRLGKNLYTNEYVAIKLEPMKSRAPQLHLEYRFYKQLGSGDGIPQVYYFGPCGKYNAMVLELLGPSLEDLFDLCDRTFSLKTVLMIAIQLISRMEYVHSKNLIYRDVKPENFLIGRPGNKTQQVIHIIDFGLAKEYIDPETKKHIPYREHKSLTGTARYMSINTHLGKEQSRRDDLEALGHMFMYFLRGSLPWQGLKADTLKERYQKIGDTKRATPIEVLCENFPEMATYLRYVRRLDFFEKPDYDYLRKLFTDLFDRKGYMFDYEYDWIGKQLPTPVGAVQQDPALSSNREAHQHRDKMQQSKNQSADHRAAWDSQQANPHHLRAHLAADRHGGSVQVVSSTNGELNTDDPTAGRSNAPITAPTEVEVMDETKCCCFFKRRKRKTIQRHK

[7] = biological target: T3, Mitogen-activated protein kinase kinase kinase kinase 3 (Homo sapiens) (UniProt Q8IVH8); test: Selectivity interaction (KinomeScan (DiscoverX)) EUB0000595a MAP4K3; conditions: at 10 µM
T3 sequence (whole entry): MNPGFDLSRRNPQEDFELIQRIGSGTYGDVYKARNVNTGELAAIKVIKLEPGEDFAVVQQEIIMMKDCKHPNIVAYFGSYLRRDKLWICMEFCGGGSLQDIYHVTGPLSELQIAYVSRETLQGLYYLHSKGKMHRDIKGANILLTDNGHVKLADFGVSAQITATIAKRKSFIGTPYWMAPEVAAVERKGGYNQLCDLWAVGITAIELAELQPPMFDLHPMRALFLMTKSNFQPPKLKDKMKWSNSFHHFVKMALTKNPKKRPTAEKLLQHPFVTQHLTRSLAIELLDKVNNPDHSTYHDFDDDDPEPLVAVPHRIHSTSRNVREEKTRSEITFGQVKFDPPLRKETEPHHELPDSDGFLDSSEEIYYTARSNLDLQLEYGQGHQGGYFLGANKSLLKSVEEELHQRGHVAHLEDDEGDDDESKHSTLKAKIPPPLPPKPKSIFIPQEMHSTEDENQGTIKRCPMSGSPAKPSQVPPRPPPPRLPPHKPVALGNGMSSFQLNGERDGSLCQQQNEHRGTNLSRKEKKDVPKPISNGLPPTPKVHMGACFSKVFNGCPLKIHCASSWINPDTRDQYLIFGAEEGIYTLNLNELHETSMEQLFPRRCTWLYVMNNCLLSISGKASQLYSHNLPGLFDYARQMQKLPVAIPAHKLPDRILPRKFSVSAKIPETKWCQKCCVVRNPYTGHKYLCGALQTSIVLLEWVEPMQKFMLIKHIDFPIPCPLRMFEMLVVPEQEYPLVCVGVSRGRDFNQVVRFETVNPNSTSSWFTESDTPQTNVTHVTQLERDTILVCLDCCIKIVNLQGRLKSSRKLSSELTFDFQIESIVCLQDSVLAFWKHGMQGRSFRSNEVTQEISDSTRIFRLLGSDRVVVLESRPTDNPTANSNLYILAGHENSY

[8] = biological target: Serine/threonine-protein kinase WNK4 (Homo sapiens) (UniProt Q96J92); test: Selectivity interaction (KinomeScan (DiscoverX)) EUB0001049a WNK4; conditions: at 1 µM
Sequence of Serine/threonine-protein kinase WNK4 (Homo sapiens) (Q96J92 whole entry): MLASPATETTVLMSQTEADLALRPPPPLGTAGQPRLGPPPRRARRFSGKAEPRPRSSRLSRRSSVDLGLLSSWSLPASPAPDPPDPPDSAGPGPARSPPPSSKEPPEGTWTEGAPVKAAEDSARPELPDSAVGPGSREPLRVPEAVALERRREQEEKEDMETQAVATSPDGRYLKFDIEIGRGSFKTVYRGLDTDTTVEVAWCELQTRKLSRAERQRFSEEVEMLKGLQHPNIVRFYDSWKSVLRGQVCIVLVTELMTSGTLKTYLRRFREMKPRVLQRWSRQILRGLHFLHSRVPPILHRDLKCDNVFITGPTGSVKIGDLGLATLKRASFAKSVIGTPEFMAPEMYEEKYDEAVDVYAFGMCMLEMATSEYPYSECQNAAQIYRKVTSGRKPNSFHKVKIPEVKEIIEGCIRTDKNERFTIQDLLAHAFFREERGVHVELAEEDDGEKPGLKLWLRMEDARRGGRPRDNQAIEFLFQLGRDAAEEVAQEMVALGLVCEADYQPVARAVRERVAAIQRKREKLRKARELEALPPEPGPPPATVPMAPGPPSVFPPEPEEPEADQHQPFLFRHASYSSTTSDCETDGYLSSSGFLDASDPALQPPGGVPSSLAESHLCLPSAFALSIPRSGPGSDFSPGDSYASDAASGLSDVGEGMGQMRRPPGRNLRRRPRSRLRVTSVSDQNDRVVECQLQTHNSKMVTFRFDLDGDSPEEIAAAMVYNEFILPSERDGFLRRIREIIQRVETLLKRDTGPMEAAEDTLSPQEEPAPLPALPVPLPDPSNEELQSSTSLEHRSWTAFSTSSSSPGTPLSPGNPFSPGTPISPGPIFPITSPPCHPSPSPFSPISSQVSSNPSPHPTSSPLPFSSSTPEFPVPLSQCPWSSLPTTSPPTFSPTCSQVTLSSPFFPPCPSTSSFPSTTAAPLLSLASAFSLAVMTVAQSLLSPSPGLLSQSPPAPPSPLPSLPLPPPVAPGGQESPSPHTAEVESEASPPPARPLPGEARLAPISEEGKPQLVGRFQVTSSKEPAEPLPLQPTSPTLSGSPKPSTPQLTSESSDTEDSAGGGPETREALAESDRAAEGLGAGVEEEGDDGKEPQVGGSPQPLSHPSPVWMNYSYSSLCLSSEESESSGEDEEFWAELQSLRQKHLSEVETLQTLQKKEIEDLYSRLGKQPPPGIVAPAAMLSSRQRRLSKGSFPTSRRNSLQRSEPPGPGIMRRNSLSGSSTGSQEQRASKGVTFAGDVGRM

[9] = biological target: Aurora kinase B (Homo sapiens, UniProt Q96GD4); test: Selectivity interaction (Kinase panel (KiNativ target engagement assay in Jurkat cells)) EUB0001635a AURKB; assay type: cell-based; conditions: Selectivity number of off-targets 0.0, Selectivity number of targets 233.0, Source Knowledge https://www.sciencedirect.com/science/article/pii/S2451945619300674?via%3Dihub, at 1 µM
Sequence of Aurora kinase B (Q96GD4 whole entry): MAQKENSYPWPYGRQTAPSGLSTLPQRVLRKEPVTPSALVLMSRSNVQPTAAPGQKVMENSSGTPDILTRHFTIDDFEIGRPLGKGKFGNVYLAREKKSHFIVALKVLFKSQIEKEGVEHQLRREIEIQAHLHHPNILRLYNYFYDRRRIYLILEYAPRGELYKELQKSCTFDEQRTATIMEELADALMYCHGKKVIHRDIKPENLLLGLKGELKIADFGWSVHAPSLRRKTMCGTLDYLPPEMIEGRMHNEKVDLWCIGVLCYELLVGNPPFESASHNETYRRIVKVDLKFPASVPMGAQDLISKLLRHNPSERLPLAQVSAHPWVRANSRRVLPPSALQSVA

[10] = biological target: Mitogen-activated protein kinase kinase kinase 10 (Homo sapiens) (UniProt Q02779); test: Selectivity interaction (KinomeScan (DiscoverX)) EUB0001619a MAP3K10; conditions: at 1 µM
Sequence of Mitogen-activated protein kinase kinase kinase 10 (Homo sapiens) (Q02779 whole entry, looked up): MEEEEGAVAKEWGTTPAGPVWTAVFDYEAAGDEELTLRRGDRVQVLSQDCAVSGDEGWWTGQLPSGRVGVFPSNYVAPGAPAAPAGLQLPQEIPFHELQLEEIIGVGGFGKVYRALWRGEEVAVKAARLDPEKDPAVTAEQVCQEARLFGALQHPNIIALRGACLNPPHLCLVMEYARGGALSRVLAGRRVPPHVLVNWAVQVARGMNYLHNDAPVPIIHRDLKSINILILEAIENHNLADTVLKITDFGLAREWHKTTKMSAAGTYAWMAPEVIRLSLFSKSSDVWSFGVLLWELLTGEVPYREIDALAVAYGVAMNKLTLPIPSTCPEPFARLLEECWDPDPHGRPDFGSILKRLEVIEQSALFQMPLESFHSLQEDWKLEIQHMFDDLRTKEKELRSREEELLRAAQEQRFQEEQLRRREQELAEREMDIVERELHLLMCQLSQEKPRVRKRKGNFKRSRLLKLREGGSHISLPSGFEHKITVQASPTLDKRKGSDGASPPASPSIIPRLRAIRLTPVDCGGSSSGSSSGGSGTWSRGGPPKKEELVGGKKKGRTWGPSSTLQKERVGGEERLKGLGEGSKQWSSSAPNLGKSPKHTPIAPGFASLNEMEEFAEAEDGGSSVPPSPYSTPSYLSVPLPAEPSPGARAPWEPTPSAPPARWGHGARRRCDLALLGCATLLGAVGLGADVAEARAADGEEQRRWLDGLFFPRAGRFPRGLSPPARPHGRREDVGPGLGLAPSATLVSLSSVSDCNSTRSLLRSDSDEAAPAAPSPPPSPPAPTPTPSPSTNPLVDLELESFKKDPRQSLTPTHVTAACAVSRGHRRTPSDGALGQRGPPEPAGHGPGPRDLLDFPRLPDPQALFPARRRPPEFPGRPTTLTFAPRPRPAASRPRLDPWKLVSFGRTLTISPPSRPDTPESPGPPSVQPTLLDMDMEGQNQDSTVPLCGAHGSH

Sequence of Serine/threonine-protein kinase PAK 6 (Homo sapiens) (Q9NQU5 whole entry, looked up): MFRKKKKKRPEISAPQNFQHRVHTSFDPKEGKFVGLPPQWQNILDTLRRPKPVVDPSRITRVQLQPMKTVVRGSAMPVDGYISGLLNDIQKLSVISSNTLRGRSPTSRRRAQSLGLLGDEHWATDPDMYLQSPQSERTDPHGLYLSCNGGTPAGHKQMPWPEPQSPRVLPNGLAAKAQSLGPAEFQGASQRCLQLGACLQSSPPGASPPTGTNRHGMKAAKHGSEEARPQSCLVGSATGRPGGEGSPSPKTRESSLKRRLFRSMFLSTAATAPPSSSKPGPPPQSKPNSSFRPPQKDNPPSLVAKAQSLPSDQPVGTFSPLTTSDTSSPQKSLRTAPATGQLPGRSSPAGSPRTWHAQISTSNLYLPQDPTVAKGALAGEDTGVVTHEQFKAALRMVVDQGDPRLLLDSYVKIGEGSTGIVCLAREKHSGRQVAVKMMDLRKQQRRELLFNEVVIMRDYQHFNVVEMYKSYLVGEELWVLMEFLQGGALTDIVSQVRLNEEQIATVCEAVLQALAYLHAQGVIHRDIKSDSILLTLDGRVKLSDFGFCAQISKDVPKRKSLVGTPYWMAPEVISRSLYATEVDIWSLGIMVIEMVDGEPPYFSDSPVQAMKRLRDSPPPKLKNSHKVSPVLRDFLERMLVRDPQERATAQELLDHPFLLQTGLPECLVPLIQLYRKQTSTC

Structure (SMILES): O=C(NOC[C@H](O)CO)c1ccc(F)c(F)c1Nc1ccc(I)cc1F
- % of control [1]: 100%

- % of inhibition [2]: -2%
Structure (SMILES): CN1Cc2nccc(-c3cn(C)nc3-c3ccc(F)cc3)c2C1=O

Structure (SMILES): CNC(=O)Nc1ccc(-c2nc(N3CC4CCC(C3)O4)c3cnn(C4CCC5(CC4)OCCO5)c3n2)cc1
- % of inhibition [3]: 9%

- % of control [4]: 100%
Structure (SMILES): CCN(CC)CCCCNc1ncc2cc(-c3cc(OC)cc(OC)c3)c(NC(=O)NC(C)(C)C)nc2n1

- % of inhibition [5]: 8.54%
Structure (SMILES): CC[C@@H]1[C@H](F)C(=O)N[C@@H]1COc1nccc2cc(C(N)=O)c(OC)cc12 [ZIMLOVISERTIB]

Structure (SMILES): COCC(=O)NC/C=C/c1ccc2ncnc(Nc3ccc(Oc4ccc(C)nc4)c(C)c3)c2c1 [CP-724714]
- % of control [6]: 100%
- % of control [7]: 80%

Structure (SMILES): COc1cc(Nc2nc(C)cc(-c3cnn4nc(OC)ccc34)n2)cc(C(F)(F)F)c1
- % of control [8]: 100%

Structure (SMILES): C=CC(=O)Nc1ccc(C(=O)Nc2[nH]nc3c2CN(C(=O)N[C@H](CN(C)C)c2ccccc2)C3(C)C)cc1
- % of engagement [9]: 23%

Structure (SMILES): N#Cc1cccc(-c2c[nH]c3ncnc(N4CCOCC4)c23)c1
- % of control [10]: 100%
